pIC50: −log10 of the molar value. Starred links: 1 amine or outer side, 2 acyl side, 3 side chain; linkers in the order of their positions; H or OH if unused. Positions of bridges follow the written chain, without caps; N, C: chain ends. Non-standard residues stand in square brackets, D forms with d. Residues, ends and D or L forms follow the SMILES beside them. ξ: configuration not given here. Phe(4-COOH) = N[C@@H](Cc1ccc(C(=O)O)cc1)C(=O)O; γGlu = O=C(O)[C@H](CCC(=O)[*:2])N[*:1]; NMeIle(3ξ) = CCC(C)[C@H](NC)C(=O)O; Val(3-OH) = CC(C)(O)[C@H](N)C(=O)O; 4Pal = N[C@@H](Cc1ccncc1)C(=O)O; NMeE = CN[C@@H](CCC(=O)O)C(=O)O; Tic = O=C(O)[C@@H]1Cc2ccccc2CN1; Ahp(2) = CCCCC[C@H](N)C(=O)O; NMeNle = CCCC[C@H](NC)C(=O)O; Tle = CC(C)(C)[C@H](N)C(=O)O; NMeS = CN[C@@H](CO)C(=O)O; NHexGly = CCCCCCNCC(=O)O; NMeA = CN[C@@H](C)C(=O)O; Nle = CCCC[C@H](N)C(=O)O; Aun = NCCCCCCCCCCC(=O)O; Nva = CCC[C@H](N)C(=O)O; AEEA = NCCOCCOCC(=O)O

As a reminder, the pIC50 is −log10 of the IC50, conventionally taken in molar units.

The assay concerns the target T1, mouse VISTA (mVISTA) (Mus musculus, UniProt Q9D659).
T1 construct: expressed in transfected cells; host or cells: Human embryonic kidney 293T cells
T1 sequence (Q9D659 33-308): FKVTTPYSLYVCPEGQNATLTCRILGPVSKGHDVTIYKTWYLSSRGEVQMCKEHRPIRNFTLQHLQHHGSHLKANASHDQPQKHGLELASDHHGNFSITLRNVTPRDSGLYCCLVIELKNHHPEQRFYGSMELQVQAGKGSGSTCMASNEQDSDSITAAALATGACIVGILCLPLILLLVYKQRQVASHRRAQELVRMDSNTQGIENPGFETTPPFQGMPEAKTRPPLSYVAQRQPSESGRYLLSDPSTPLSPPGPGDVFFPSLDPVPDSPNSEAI
The assay can be described thus: Cell-Based Binding High-Content Assay For mVISTA (HC CBA mVISTA). The settings on record: read-out: HC CBA mVISTA IC50. In short, it runs like this:
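mVISTA-293T, 4,000 cells/well; cpd ± washout step; biotin-peptide 2 nM final, 30 min RT; SA-Alexa 647 30 min; formaldehyde/Hoechst fix; HCS imaging; 4PL IC50.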

On to `CCCCCCN1CC(=O)N[C@@H](Cc2ccc(O)cc2)C(=O)N[C@@H](CCCC)C(=O)N[C@@H](CC(N)=O)C(=O)N[C@@H](CCCNC(=N)N)C(=O)N[C@@H](CC(C)C)C(=O)N[C@@H](CCCCC)C(=O)N2CCC[C@H]2C(=O)N[C@@H](C(C)(C)C)C(=O)N[C@@H](CO)C(=O)N[C@H](C(=O)NCCOCCOCC(=O)N[C@@H](CCC(=O)NCCOCCOCC(=O)NCCCCCCCCCCC(=O)O)C(=O)O)CSCC(=O)N[C@@H](Cc2ccccc2)C(=O)N[C@@H](Cc2c[nH]c3ccccc23)C(=O)N[C@@H](CC(=O)O)C1=O` [compound 2243] ({CH2CO}-FWD[NHexGly]Y[Nle]NRL[Ahp(2)]P[Tle]SC[AEEA][γGlu][AEEA][Aun]-OH; thioether N-14), for which the negative-log IC50 (pIC50) was 7.41.

Consider `CCCCCCN1CC(=O)N[C@@H](Cc2ccc(O)cc2)C(=O)N[C@@H](CCCC)C(=O)N[C@@H](CC(N)=O)C(=O)N[C@@H](CCCNC(=N)N)C(=O)N2Cc3ccccc3C[C@H]2C(=O)N[C@@H](CCCCC)C(=O)N2CCC[C@H]2C(=O)N[C@@H](C(C)(C)C)C(=O)N[C@@H](CO)C(=O)N[C@H](C(=O)NCCOCCOCC(=O)N[C@@H](CCC(=O)NCCOCCOCC(=O)NCCCCCCCCCCC(=O)O)C(=O)O)CSCC(=O)N[C@@H](Cc2ccccc2)C(=O)N[C@@H](Cc2c[nH]c3ccccc23)C(=O)N[C@@H](CC(=O)O)C1=O` [compound 2244] ({CH2CO}-FWD[NHexGly]Y[Nle]NR[Tic][Ahp(2)]P[Tle]SC[AEEA][γGlu][AEEA][Aun]-OH; thioether N-14), for which the negative logarithm of the IC50 (pIC50) was 7.49.

For `CCCCCCN1CC(=O)N[C@@H](Cc2ccc(O)cc2)C(=O)N[C@@H](CCCC)C(=O)N[C@@H](CC(N)=O)C(=O)N[C@@H](CCCNC(=N)N)C(=O)N(C)[C@@H](CO)C(=O)N[C@@H](CCCCC)C(=O)N2CCC[C@H]2C(=O)N[C@@H](C(C)(C)C)C(=O)N[C@@H](CO)C(=O)N[C@H](C(=O)NCCOCCOCC(=O)N[C@@H](CCC(=O)NCCOCCOCC(=O)NCCCCCCCCCCC(=O)O)C(=O)O)CSCC(=O)N[C@@H](Cc2ccccc2)C(=O)N[C@@H](Cc2c[nH]c3ccccc23)C(=O)N[C@@H](CC(=O)O)C1=O` [compound 2245] ({CH2CO}-FWD[NHexGly]Y[Nle]NR[NMeS][Ahp(2)]P[Tle]SC[AEEA][γGlu][AEEA][Aun]-OH; thioether N-14), the negative-log IC50 (pIC50) is 7.56.

`CCCCCCN1CC(=O)N[C@@H](Cc2ccc(O)cc2)C(=O)N[C@@H](CCCC)C(=O)N[C@@H](CC(N)=O)C(=O)N[C@@H](CCCNC(=N)N)C(=O)N(C)[C@@H](C(C)CC)C(=O)N[C@@H](CCCCC)C(=O)N2CCC[C@H]2C(=O)N[C@@H](C(C)(C)C)C(=O)N[C@@H](CO)C(=O)N[C@H](C(=O)NCCOCCOCC(=O)N[C@@H](CCC(=O)NCCOCCOCC(=O)NCCCCCCCCCCC(=O)O)C(=O)O)CSCC(=O)N[C@@H](Cc2ccccc2)C(=O)N[C@@H](Cc2c[nH]c3ccccc23)C(=O)N[C@@H](CC(=O)O)C1=O` (stereo partly drawn) [compound 2246] ({CH2CO}-FWD[NHexGly]Y[Nle]NR[NMeIle(3ξ)][Ahp(2)]P[Tle]SC[AEEA][γGlu][AEEA][Aun]-OH; thioether N-14): the negative-log IC50 (pIC50) is 7.33.

In the case of `CCCCCCN1CC(=O)N[C@@H](Cc2ccc(O)cc2)C(=O)N[C@@H](CCCC)C(=O)N[C@@H](CC(N)=O)C(=O)N[C@@H](CCCNC(=N)N)C(=O)N(C)[C@@H](C)C(=O)N[C@@H](CCCCC)C(=O)N2CCC[C@H]2C(=O)N[C@@H](C(C)(C)C)C(=O)N[C@@H](CO)C(=O)N[C@H](C(=O)NCCOCCOCC(=O)N[C@@H](CCC(=O)NCCOCCOCC(=O)NCCCCCCCCCCC(=O)O)C(=O)O)CSCC(=O)N[C@@H](Cc2ccccc2)C(=O)N[C@@H](Cc2c[nH]c3ccccc23)C(=O)N[C@@H](CC(=O)O)C1=O` [compound 2247] ({CH2CO}-FWD[NHexGly]Y[Nle]NR[NMeA][Ahp(2)]P[Tle]SC[AEEA][γGlu][AEEA][Aun]-OH; thioether N-14), the pIC50 is 7.53.

For the compound `CCCCCCN1CC(=O)N[C@@H](Cc2ccc(O)cc2)C(=O)N[C@@H](CCCC)C(=O)N[C@@H](CC(N)=O)C(=O)N[C@@H](CCCNC(=N)N)C(=O)N(C)[C@@H](CCC(=O)O)C(=O)N[C@@H](CCCCC)C(=O)N2CCC[C@H]2C(=O)N[C@@H](C(C)(C)C)C(=O)N[C@@H](CO)C(=O)N[C@H](C(=O)NCCOCCOCC(=O)N[C@@H](CCC(=O)NCCOCCOCC(=O)NCCCCCCCCCCC(=O)O)C(=O)O)CSCC(=O)N[C@@H](Cc2ccccc2)C(=O)N[C@@H](Cc2c[nH]c3ccccc23)C(=O)N[C@@H](CC(=O)O)C1=O` [compound 2248] ({CH2CO}-FWD[NHexGly]Y[Nle]NR[NMeE][Ahp(2)]P[Tle]SC[AEEA][γGlu][AEEA][Aun]-OH; thioether N-14), the negative logarithm of the IC50 (pIC50) was 7.34.

On to `CCCCCCN1CC(=O)N[C@@H](Cc2ccc(O)cc2)C(=O)N[C@@H](CCCC)C(=O)N[C@@H](CC(N)=O)C(=O)N[C@@H](CCCNC(=N)N)C(=O)N(C)[C@@H](CCCC)C(=O)N[C@@H](CCCCC)C(=O)N2CCC[C@H]2C(=O)N[C@@H](C(C)(C)O)C(=O)N[C@@H](CO)C(=O)N[C@H](C(=O)NCCOCCOCC(=O)N[C@@H](CCC(=O)NCCOCCOCC(=O)NCCCCCCCCCCC(=O)O)C(=O)O)CSCC(=O)N[C@@H](Cc2ccccc2)C(=O)N[C@@H](Cc2c[nH]c3ccccc23)C(=O)N[C@@H](CC(=O)O)C1=O` [compound 2250] ({CH2CO}-FWD[NHexGly]Y[Nle]NR[NMeNle][Ahp(2)]P[Val(3-OH)]SC[AEEA][γGlu][AEEA][Aun]-OH; thioether N-14), for which the pIC50 is 7.30.

As for `CCCCCCN1CC(=O)N[C@@H](Cc2ccc(O)cc2)C(=O)N[C@@H](CCCC)C(=O)N[C@@H](CC(N)=O)C(=O)N[C@@H](CCCNC(=N)N)C(=O)N(C)[C@@H](CCCC)C(=O)N[C@@H](CCCCC)C(=O)N2CCC[C@H]2C(=O)N[C@@H](C(C)(C)C)C(=O)N[C@@H](CO)C(=O)N[C@H](C(=O)NCCOCCOCC(=O)N[C@@H](CCC(=O)NCCOCCOCC(=O)NCCCCCCCCCCC(=O)O)C(=O)O)CSCC(=O)N[C@@H](Cc2ccc(C(=O)O)cc2)C(=O)N[C@@H](Cc2ccc(O)cc2)C(=O)N[C@@H](CC(=O)O)C1=O` [compound 2251] ({CH2CO}-[Phe(4-COOH)]YD[NHexGly]Y[Nle]NR[NMeNle][Ahp(2)]P[Tle]SC[AEEA][γGlu][AEEA][Aun]-OH; thioether N-14), the pIC50 was 7.54.

In the case of `CCCCCCN1CC(=O)N[C@@H](Cc2ccc(O)cc2)C(=O)N[C@@H](CCCC)C(=O)N[C@@H](CC(N)=O)C(=O)N[C@@H](CCCNC(=N)N)C(=O)N(C)[C@@H](CCCC)C(=O)N[C@@H](CCCCC)C(=O)N2CCC[C@H]2C(=O)N[C@@H](C(C)(C)C)C(=O)N[C@@H](CO)C(=O)N[C@H](C(=O)NCCOCCOCC(=O)N[C@@H](CCC(=O)NCCOCCOCC(=O)NCCCCCCCCCCC(=O)O)C(=O)O)CSCC(=O)N[C@@H](Cc2ccc(O)cc2)C(=O)N[C@@H](Cc2ccc(O)cc2)C(=O)N[C@@H](CC(=O)O)C1=O` [compound 2252] ({CH2CO}-YYD[NHexGly]Y[Nle]NR[NMeNle][Ahp(2)]P[Tle]SC[AEEA][γGlu][AEEA][Aun]-OH; thioether N-14), the pIC50 was 7.92.

`CCCCCCN1CC(=O)N[C@@H](Cc2ccc(O)cc2)C(=O)N[C@@H](CCCC)C(=O)N[C@@H](CC(N)=O)C(=O)N[C@@H](CCCNC(=N)N)C(=O)N(C)[C@@H](CCCC)C(=O)N[C@@H](CCCCC)C(=O)N2CCC[C@H]2C(=O)N[C@@H](C(C)(C)C)C(=O)N[C@@H](CO)C(=O)N[C@H](C(=O)NCCOCCOCC(=O)N[C@@H](CCC(=O)NCCOCCOCC(=O)NCCCCCCCCCCC(=O)O)C(=O)O)CSCC(=O)N[C@@H](Cc2ccncc2)C(=O)N[C@@H](Cc2c[nH]c3ccccc23)C(=O)N[C@@H](CC(=O)O)C1=O` [compound 2253] ({CH2CO}-[4Pal]WD[NHexGly]Y[Nle]NR[NMeNle][Ahp(2)]P[Tle]SC[AEEA][γGlu][AEEA][Aun]-OH; thioether N-14): the pIC50 was 7.68.

Turning to `CCCCCCN1CC(=O)N[C@@H](Cc2ccc(O)cc2)C(=O)N[C@@H](CCCC)C(=O)N[C@@H](CC(N)=O)C(=O)N[C@@H](CCCNC(=N)N)C(=O)N[C@@H](CCCCN)C(=O)N[C@@H](CCCCC)C(=O)N2CCC[C@H]2C(=O)N[C@@H](C(C)(C)C)C(=O)N[C@@H](CC(=O)O)C(=O)N[C@H](C(=O)NCCOCCOCC(=O)N[C@@H](CCC(=O)NCCOCCOCC(=O)NCCCCCCCCCCC(=O)O)C(=O)O)CSCC(=O)N[C@@H](Cc2ccccc2)C(=O)N[C@@H](Cc2c[nH]c3ccccc23)C(=O)N[C@@H](CC(=O)O)C1=O` [compound 2254] ({CH2CO}-FWD[NHexGly]Y[Nle]NRK[Ahp(2)]P[Tle]DC[AEEA][γGlu][AEEA][Aun]-OH; thioether N-14), the pIC50 was 7.55.

For `CCCCCCN1CC(=O)N[C@@H](Cc2ccc(O)cc2)C(=O)N[C@@H](CCC)C(=O)N[C@@H](CC(N)=O)C(=O)N[C@@H](CCCNC(=N)N)C(=O)N(C)[C@@H](CCCC)C(=O)N[C@@H](CCCCC)C(=O)N2CCC[C@H]2C(=O)N[C@@H](C(C)(C)C)C(=O)N[C@@H](CC(=O)O)C(=O)N[C@H](C(=O)NCCOCCOCC(=O)N[C@@H](CCC(=O)NCCOCCOCC(=O)NCCCCCCCCCCC(=O)O)C(=O)O)CSCC(=O)N[C@@H](Cc2ccccc2)C(=O)N[C@@H](Cc2c[nH]c3ccccc23)C(=O)N[C@@H](CC(=O)O)C1=O` [compound 2255] ({CH2CO}-FWD[NHexGly]Y[Nva]NR[NMeNle][Ahp(2)]P[Tle]DC[AEEA][γGlu][AEEA][Aun]-OH; thioether N-14), the negative-log IC50 (pIC50) is 7.57.

Values taken from patent publication US20240218022A1, “ANTI-VISTA MACROCYCLIC PEPTIDES AND COMPOSITIONS” (BRISTOL-MYERS SQUIBB COMPANY, priority 2022, published 2024).
